Where “and” joins values, the source holds several entries; their conditions need not be identical. Identical values can stand only once. Toxic doses and inconclusive results are not listed.
Test system: BDF1 mice, B16 melanoma ip, median survival T/C
Assay: NCI In Vivo Anticancer Drug Screen. Data for tumor model B16 Melanoma (intraperitoneal) in B6D2F1 (BDF1) mice
Conditions: endpoint: median survival time, higher = longer survival
Procedure, shortened: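 In this screen, activity was judged from survival or tumor size in treated versus vehicle-treated tumor-bearing mice, reported as T/C.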

[1] = dose: 50.0 mg/kg/injection, schedule: Q01DX009 (ip), vehicle: Klucel (hydroxypropylcellulose) (HPC)
[2] = dose: 100.0 mg/kg/injection, schedule: Q01DX009 (ip), vehicle: Klucel (hydroxypropylcellulose) (HPC)
[3] = dose: 200.0 mg/kg/injection, schedule: Q01DX009 (ip), vehicle: Klucel (hydroxypropylcellulose) (HPC)
[4] = dose: 400.0 mg/kg/injection, schedule: Q01DX009 (ip), vehicle: Klucel (hydroxypropylcellulose) (HPC)
[5] = dose: 6.25 mg/kg/injection, schedule: Q01DX009 (ip), vehicle: saline with Tween-80
[6] = dose: 12.5 mg/kg/injection, schedule: Q01DX009 (ip), vehicle: saline with Tween-80
[7] = dose: 25.0 mg/kg/injection, schedule: Q01DX009 (ip), vehicle: saline with Tween-80
[8] = dose: 12.5 mg/kg/injection, schedule: Q01DX009 (ip), vehicle: Klucel (hydroxypropylcellulose) (HPC)
[9] = dose: 25.0 mg/kg/injection, schedule: Q01DX009 (ip), vehicle: Klucel (hydroxypropylcellulose) (HPC)

`COC(=O)[C@@]12OC[C@]34[C@H]([C@@H](O)[C@@H]1O)[C@@]1(C)CC(=O)C(O)=C(C)[C@@H]1C[C@H]3OC(=O)[C@H](OC(=O)/C=C(\C)C(C)C)[C@@H]24` was tested, and the T/C (dose: 0.03 mg/kg/injection, schedule: Q01DX009 (ip), vehicle: saline + alcohol) was 122 % of control, the T/C (dose: 0.12 mg/kg/injection, schedule: Q01DX009 (ip), vehicle: other) was 169 % of control and the T/C (dose: 0.12 mg/kg/injection, schedule: Q01DX009 (ip), vehicle: saline + alcohol) was 153 % of control. For the same molecule, the T/C (dose: 0.25 mg/kg/injection, schedule: Q01DX009 (ip), vehicle: other) was 155 % of control, the T/C (dose: 0.25 mg/kg/injection, schedule: Q01DX009 (ip), vehicle: saline + alcohol) was 154 % of control and the T/C (dose: 0.5 mg/kg/injection, schedule: Q01DX009 (ip), vehicle: other) was 160 % of control. For the same molecule, the T/C (dose: 0.5 mg/kg/injection, schedule: Q01DX009 (ip), vehicle: saline + alcohol) was 154 % of control and 157 % of control, the T/C (dose: 1.0 mg/kg/injection, schedule: Q01DX009 (ip), vehicle: other) was 164 % of control and the T/C (dose: 1.0 mg/kg/injection, schedule: Q01DX009 (ip), vehicle: saline + alcohol) was 158 % of control and 164 % of control. For the same molecule, the T/C (dose: 2.0 mg/kg/injection, schedule: Q01DX009 (ip), vehicle: saline + alcohol) was 177 % of control, the T/C (dose: 125.0 micrograms/kg/injection, schedule: Q01DX009 (ip), vehicle: saline + alcohol) was 160 % of control and the T/C (dose: 250.0 micrograms/kg/injection, schedule: Q01DX009 (ip), vehicle: saline + alcohol) was 160 % of control. The T/C (dose: 500.0 micrograms/kg/injection, schedule: Q01DX009 (ip), vehicle: saline + alcohol) was 168 % of control, the T/C (dose: 1000.0 micrograms/kg/injection, schedule: Q01DX009 (ip), vehicle: saline + alcohol) was 164 % of control and the T/C (dose: 2000.0 micrograms/kg/injection, schedule: Q01DX009 (ip), vehicle: saline + alcohol) was 97 % of control.
For `CN1CCN(Cc2c(O)ccc3c4c(c(=O)oc23)CCCC4)CC1`, the T/C (dose: 32.0 mg/kg/injection, schedule: Q01DX009 (ip), vehicle: Klucel (hydroxypropylcellulose) (HPC)) was 105 % of control, the T/C (dose: 64.0 mg/kg/injection, schedule: Q01DX009 (ip), vehicle: Klucel (hydroxypropylcellulose) (HPC)) was 100 % of control and the T/C (dose: 128.0 mg/kg/injection, schedule: Q01DX009 (ip), vehicle: Klucel (hydroxypropylcellulose) (HPC)) was 100 % of control.
`O=c1oc(-c2cccc([N+](=O)[O-])c2)nc2ccccc12` was tested, and the T/C [1] was 106 % of control and the T/C [2] was 86 % of control.
In the case of `CC(C)N(C(=O)Nc1ccccc1Cl)c1ccccc1`, the T/C [2] was 89 % of control, the T/C [3] was 91 % of control and the T/C [4] was 92 % of control.
`COC(=O)C(C)CN1CCCCC1` (stereo not drawn) was tested, and the T/C (dose: 50.0 mg/kg/injection, schedule: Q04DX003 (ip), vehicle: saline) was 111 % of control, the T/C (dose: 100.0 mg/kg/injection, schedule: Q04DX003 (ip), vehicle: saline) was 111 % of control and the T/C (dose: 200.0 mg/kg/injection, schedule: Q04DX003 (ip), vehicle: saline) was 105 % of control.
With `C1COC(NC2CC3CCC2C3)=N1` (stereo not drawn) the T/C [5] was 107 % of control, the T/C [6] was 100 % of control and the T/C [7] was 100 % of control.
In the case of `Nc1nc(=O)n(C2OC(CO)C(O)C2O)cc1F` (stereo not drawn), the T/C (dose: 6.25 mg/kg/injection, schedule: Q01DX009 (ip), vehicle: saline) was 116 % of control, the T/C (dose: 9.0 mg/kg/injection, schedule: Q01DX009 (ip), vehicle: saline) was 109 % of control and the T/C (dose: 12.5 mg/kg/injection, schedule: Q01DX009 (ip), vehicle: saline) was 96 % of control. The T/C (dose: 18.0 mg/kg/injection, schedule: Q01DX009 (ip), vehicle: saline) was 116 % of control, the T/C (dose: 24.0 mg/kg/injection, schedule: Q01DX009 (ip), vehicle: saline) was 118 % of control and the T/C (dose: 54.0 mg/kg/injection, schedule: Q01DX009 (ip), vehicle: saline) was 103 % of control.
In the case of `NC1=CC(=O)c2ccccc2C1=O`, the T/C [8] was 96 % of control, the T/C [9] was 99 % of control and the T/C [1] was 101 % of control.
In the case of `Nc1nc(N)nc(N)n1`, the T/C [2] was 100 % of control, the T/C (dose: 100.0 mg/kg/injection, schedule: Q01DX009 (ip), vehicle: saline with Tween-80) was 102 % of control and the T/C [3] was 100 % of control. For the same molecule, the T/C (dose: 200.0 mg/kg/injection, schedule: Q01DX009 (ip), vehicle: saline with Tween-80) was 102 % of control, the T/C [4] was 105 % of control and the T/C (dose: 400.0 mg/kg/injection, schedule: Q01DX009 (ip), vehicle: saline with Tween-80) was 87 % of control. For the same molecule, the T/C (dose: 800.0 mg/kg/injection, schedule: Q01DX009 (ip), vehicle: saline with Tween-80) was 90 % of control.
`CCCc1c2cc(OC)c(OC)cc2cc2c3cc(OC)c(OC)cc3cc[n+]12` (tested in a mixture with another compound) was tested, and the T/C (dose: 6.25 mg/kg/injection, schedule: Q01DX009 (ip), vehicle: Klucel (hydroxypropylcellulose) (HPC)) was 100 % of control, the T/C [8] was 96 % of control and the T/C [9] was 100 % of control.
For `CCC/C=C/C=C\C(=O)O[C@@H]1[C@@H](C)[C@]2(O)[C@@H]3C=C(C)C(=O)[C@H]3CC(COC(C)=O)=C[C@H]2[C@@H]2C(C)(C)[C@]12OC(C)=O`, the T/C (dose: 0.75 mg/kg/injection, schedule: Q01DX009 (ip), vehicle: saline + alcohol) was 107 % of control, the T/C (dose: 1.5 mg/kg/injection, schedule: Q01DX009 (ip), vehicle: saline + alcohol) was 105 % of control and the T/C (dose: 3.0 mg/kg/injection, schedule: Q01DX009 (ip), vehicle: saline + alcohol) was 113 % of control. For the same molecule, the T/C (dose: 6.0 mg/kg/injection, schedule: Q01DX009 (ip), vehicle: saline + alcohol) was 113 % of control.
`CC(=O)N1CCC2(CC1)SSC1(CCN(C(C)=O)CC1)S2` was tested, and the T/C (dose: 5.0 mg/kg/injection, schedule: Q01DX009 (ip), vehicle: saline with Tween-80) was 105 % of control and the T/C (dose: 10.0 mg/kg/injection, schedule: Q01DX009 (ip), vehicle: saline with Tween-80) was 112 % of control.
For `COc1ccc(OC)c(NC=O)c1`, the T/C [5] was 91 % of control, the T/C [6] was 106 % of control and the T/C [7] was 90 % of control and 97 % of control.
In the case of `O=S(=O)(Nc1ccccc1)c1ccc(C2CC3(Cl)C(Cl)=C(Cl)C2(Cl)C3(Cl)Cl)cc1` (stereo not drawn), the T/C [2] was 100 % of control and the T/C [3] was 87 % of control.
In the case of `COc1cccc2c1C(=O)c1c(O)c3c(c(O)c1C2=O)C[C@@](O)(/C(CO)=N/NC(=O)c1ccc(Cl)c(Cl)c1)C[C@@H]3OC1CC(NC(=S)Nc2ccc(F)cc2)C(O)C(C)O1` (stereo partly drawn), the T/C (dose: 0.4 mg/kg/injection, schedule: Q01DX009 (ip), vehicle: water) was 101 % of control, the T/C (dose: 0.8 mg/kg/injection, schedule: Q01DX009 (ip), vehicle: water) was 112 % of control and the T/C (dose: 1.6 mg/kg/injection, schedule: Q01DX009 (ip), vehicle: water) was 111 % of control. The T/C (dose: 3.2 mg/kg/injection, schedule: Q01DX009 (ip), vehicle: water) was 106 % of control.
`CCOC(=O)/N=[N+](\[O-])c1ccccc1` was tested, and the T/C (dose: 3.12 mg/kg/injection, schedule: Q01DX009 (ip), vehicle: saline with Tween-80) was 97 % of control, the T/C [5] was 100 % of control and the T/C [6] was 105 % of control. The T/C [7] was 104 % of control.
For `CCOC(=O)/C=C/c1c[nH]c(C(=O)OCC)c1`, the T/C [1] was 102 % of control, the T/C [2] was 96 % of control and the T/C [3] was 99 % of control. The T/C [4] was 98 % of control.
In the case of `CC(=O)OC(C)C1C2=C(C(=O)CC1(C)O)C(=O)c1c(ccc(-c3ccc4c(c3O)C(=O)C3=C(C4=O)C(C(C)OC(C)=O)C(C)(O)CC3=O)c1O)C2=O` (stereo not drawn), the T/C (dose: 1.56 mg/kg/injection, schedule: Q01DX009 (ip), vehicle: saline with Tween-80) was 110 % of control, the T/C (dose: 3.13 mg/kg/injection, schedule: Q01DX009 (ip), vehicle: saline with Tween-80) was 117 % of control and the T/C [5] was 110 % of control.
In the case of `C[C@]12CC[C@H](OC3OC(CO)C(O)C(O)C3O)C[C@H]1CC[C@@H]1[C@@H]2CC[C@]2(C)[C@@H](C3=CCOC3=O)CC[C@]12O` (stereo partly drawn), the T/C (dose: 0.5 mg/kg/injection, schedule: Q01DX009 (ip), vehicle: saline) was 107 % of control, the T/C (dose: 1.0 mg/kg/injection, schedule: Q01DX009 (ip), vehicle: saline) was 92 % of control and the T/C (dose: 2.0 mg/kg/injection, schedule: Q01DX009 (ip), vehicle: saline) was 105 % of control.
For `CN1CCc2cc3c(cc2C1)OCO3`, the T/C (dose: 25.0 mg/kg/injection, schedule: Q01DX009 (ip), vehicle: saline) was 94 % of control, the T/C (dose: 50.0 mg/kg/injection, schedule: Q01DX009 (ip), vehicle: saline) was 93 % of control and the T/C (dose: 100.0 mg/kg/injection, schedule: Q01DX009 (ip), vehicle: saline) was 95 % of control.
With `CCN(CC)CCCC#CCN1CCCC1` the T/C [9] was 100 % of control, the T/C [1] was 93 % of control and the T/C [2] was 93 % of control.

— PubChem BioAssay AID192 (DTP/NCI, 2004)
